From patent US20240197712A1, “TGF-BETA INHIBITION FOR IMMUNODEFICIENCY VIRUS REACTIVATION FROM LATENCY, ENHANCEMENT OF IMMUNODEFICIENCY VIRUS-SPECIFIC RESPONSES AND IMMUNODEFICIENCY VIRUS CURE” (Northwestern University, priority 2022, published 2024) come the findings set out here.

Type in all cases: in vivo, rhesus macaques
One series has as its system SIVmac251 or SIVmac239. Nature of the series: Tissue cell-associated vRNA/vDNA, colorectal biopsies and LN FNA. Here is the method: Blood was collected in EDTA tubes and plasma was separated by density gradient centrifugation and used for the determination of plasma VL by SIVgag qRT-PCR at NIRC or at Leidos (Quantitative Molecular Diagnostics Core, AIDS and Cancer Virus Program Frederick National Laboratory). Tissue VL from snap frozen colorectal biopsies and LN FNA were performed at Leidos (A14X004, A14X005 and A14X013) as described in (78) or, for the remaining macaques and from PBMC of all macaques they were performed as described in (77).

Series [1] is described as follows: Plasma cytokines and chemokines (MSD 24-plex). Here is the method: Cytokines in plasma (at 1:2 dilution) were measured using the NHP Cytokine 24-Plex kit by Meso Scale Diagnostics (MSD) according to manufacturer instructions. Frozen PBMC collected at week 6 post-infection (pre-ART), right before the first galunisertib administration (BC1), at the end of cycle 1 (AC1) and at the end of cycle 3 (AC3) were thawed in AIM V medium (ThermoFisher) with benzonase (Sigma) and plated on a FluoroSpot (CTL) plate pre-activated with 70% Ethanol and IFN-γ, TNF-α and IL-2 capture solution. Gag, pol, and env 15-mer peptides (NIH AIDS Reagents program) were prepared at two times the final concentration of 2.5 μg/ml with co-stimulatory reagents anti-CD28 10 μg/ml and anti-CD49d 10 μg/ml and added to the cells in CTL-Test™ Medium. Parallel positive […] control of PMA (20 ng/ml) and ionomycin (200 ng/mL) or mock DMSO solution was also plated with the stimulatory reagents. PBMCs were added at 300,000 cells per well. After 24 hrs, the plate was washed, and incubated with detection and tertiary solutions and shipped to CTL for scanning and QC.

A short description of series [2]: Galunisertib plasma pharmacokinetics by LCMS. On the procedure:
Eight naïve macaques (FIG. 9) were used to collect plasma and PBMC for PK/PD studies. 4 macaques received galunisertib (2.5 mg/kg, n=2 or 5 mg/kg, n=2) once and blood was collected at 1 hr, 3 hr and 6 hrs, 24 hrs and 48 hrs. 4 macaques received galunisertib (2.5 mg/kg, n=2 or 5 mg/kg, n=2) twice daily for 9 days and samples were collected 1 hr, 3 hr and 8 hrs after administration on day 1 and on day 9 right before and 1 hr and 3 and 6 hrs after the last administration. Plasma concentrations of galunisertib were measured by IMSERC (Integrated Molecular Structure Education and Research Center) utilizing liquid chromatography mass spectrometry (Shimadzu Kyoto, Japan ultra-high performance liquid chromatography—UHPLC—system and SCIEX Framingham, MA Qtrap 6500+ triple quadrupole mass spectrometer). All standard, quality controls (QC) and experimental samples were prepared and ran in duplicate using 20 μL of plasma (spiked with galunisertib if a standard or QC) adding 15 μL of 8% phosphoric acid solution, 200 μL of acetonitrile (to crash plasma proteins) spiked with tramadol as an internal standard. The standard curve was prepared as a 10-point curve from 1.0 to 1,000 ng/ml with three QCs. […] All samples and standards were processed in duplicate with the average area under the curve (AUC) being used for quantitation reporting. […] The resulting limit of quantitation (LOQ) was 1.0 ng/ml.

The next series deals with SIV-env. The series is described as follows: ImmunoPET/CT with 64Cu-DOTA-F(ab')2 p7D3 anti SIV-env probe, 1-2 weeks galunisertib. Here is the method: PET/CT imaging with a 64Cu-DOTA-F(ab′)2 p7D3 anti SIV-env probe were performed before Galunisertib treatment, after 7 days in all macaques and after 14 days in the macaques that were treated for 14 days. Briefly, a solution of 64Cu was incubated with DOTA-F(ab′)2 p7D3 antibody reconstituted with 50 μL of IM NH40Ac, pH of 5.5 and incubated for 1 hour at 37° C.; then purified by ultrafiltration in a desalting spin column (10K MWCO, Thermo Fisher) and finally eluted with sterile saline prior to injection. The labeled probe was injected IV via catheters, 24 h before PET-CT scanning. For taking PET/CT scans, the macaques were sedated with ketamine HCL (10 mg/kg), and/or telazol (4-8 mg/kg) via intramuscular and supplemented with ketamine (5 mg/Kg) as needed to perform the procedure. The macaque's body was immobilized in dorsal recumbency on the scanner table and PET/CT scans were acquired using a Philips Gemini TF64 PET/CT scanner. […]
PET Image analysis was performed using the MIM software. PETCT fusions were generated scaled according to calculated Standardized Uptake Values. […]
Regions of interest (ROI) were isolated using a combination of the Region Grow function and manual contouring on a representative scan. […] The signals of the whole body as well as within these ROI were quantified, and Max, Mean, and Total SUVs were calculated for further analyses. […]

Take `Cc1cccc(-c2nn3c(c2-c2ccnc4ccc(C(N)=O)cc24)CCC3)n1` [galunisertib, Galunisertib]: the “ratio CA-RNA/DNA” value with SIVmac251 or SIVmac239 (at least 2 macaques (A14X027 and A14X064)) is given as “increased substantially”. Besides, in the series on SIVmac251 or SIVmac239 (colorectal biopsies and LN FNA, before vs after treatment), the “increase in cell associated vRNA (CA-RNA)” value fell in the range of 1 to 3 log. For the same compound, in series [1] (before and after first 2 cycles and end of last cycle), the “concentrations of inflammatory chemokines and cytokines in plasma” value is “no changes”. Moreover, the IL-10 in plasma result in series [1] (end of the last cycle vs before treatment) is “small increase”. Further, in series [2] (macaque vs human plasma), the “concentration in blood of macaques lower than average concentration in human plasma after similar dosing” value is given as “at least 10 fold”. Moreover, the “PK in rhesus macaques compared with humans” value in series [2] (naïve animals, oral 2.5 or 5 mg/kg) is “substantially lower than in humans”. In the series with SIV-env (day 7 or 14 of treatment vs baseline), the “macaques with clear extensive viral reactivation in the gut (PET signal)” value was 3 of the 7. Also, in the series on SIV-env (oral galunisertib, aviremic long-term ART-treated macaques), the “macaques with increased SUVtot in PET/CT images in gut and lymph nodes” value is 5 out of 7.
